Columns and labels:
Vero E6 cells = conditions: 72 h
[1] = system: MPER25c peptide (S2 membrane proximal region derived); format: binding, SARS-CoV-2

Row | Compound | CC50 (mean ± SD) (Vero E6 cells) | fold lower binding activity to immobilized MPER25c than PN19 [1]
1 | CC[C@H](C)[C@H](NC(=O)[C@H](CCC(N)=O)NC(=O)[C@H](CC(C)C)NC(=O)[C@H](C)NC(=O)[C@H](C)NC(=O)CNC(=O)[C@H](C)NC(=O)CNC(=O)[C@H](Cc1ccccc1)NC(=O)[C@@H](NC(=O)[C@H](Cc1c[nH]c2ccccc12)NC(=O)CNC(=O)[C@H](CO)NC(C)=O)[C@@H](C)O)C(=O)N1CCC[C@H]1C(=O)N[C@@H](Cc1ccccc1)C(=O)N[C@@H](C)C(=O)N[C@@H](CCSC)C(=O)N[C@@H](CCC(N)=O)C(=O)N[C@@H](CCSC)C(N)=O [PC19] | > 100 µM | 
2 | CC[C@H](C)[C@H](NC(=O)[C@H](CCC(N)=O)NC(=O)[C@H](CC(C)C)NC(=O)[C@H](C)NC(=O)[C@H](C)NC(=O)CNC(=O)[C@H](C)NC(=O)CNC(=O)[C@H](Cc1ccccc1)NC(=O)[C@@H](NC(=O)[C@H](Cc1c[nH]c2ccccc12)NC(=O)CNC(=O)[C@H](CO)NC(C)=O)[C@@H](C)O)C(=O)N1CCC[C@H]1C(=O)N[C@@H](Cc1ccccc1)C(=O)N[C@@H](C)C(=O)N[C@@H](CCSC)C(N)=O [PC17] | > 100 µM | 
3 | CC[C@H](C)[C@H](NC(=O)[C@H](C)NC(=O)[C@H](CC(C)C)NC(=O)[C@H](C)NC(=O)[C@H](C)NC(=O)CNC(=O)[C@H](C)NC(=O)CNC(=O)[C@H](Cc1ccccc1)NC(C)=O)C(=O)N1CCC[C@H]1C(=O)N[C@@H](Cc1ccccc1)C(=O)N[C@@H](C)C(=O)N[C@@H](CCSC)C(=O)N[C@@H](CCC(N)=O)C(=O)N[C@@H](CCSC)C(=O)N[C@@H](C)C(=O)N[C@@H](Cc1ccc(O)cc1)C(=O)N[C@@H](CCCNC(=N)N)C(=O)N[C@@H](Cc1ccccc1)C(N)=O [PN19Q→A895] | >100 µM | 
4 | CC[C@H](C)[C@H](NC(=O)[C@H](CCC(N)=O)NC(=O)[C@H](CC(C)C)NC(=O)[C@H](C)NC(=O)[C@H](C)NC(=O)CNC(=O)[C@H](C)NC(=O)CNC(=O)[C@H](Cc1ccccc1)NC(C)=O)C(=O)N1CCC[C@H]1C(=O)N[C@@H](Cc1ccccc1)C(=O)N[C@@H](C)C(=O)N[C@@H](CCSC)C(=O)N[C@@H](C)C(=O)N[C@@H](CCSC)C(=O)N[C@@H](C)C(=O)N[C@@H](Cc1ccc(O)cc1)C(=O)N[C@@H](CCCNC(=N)N)C(=O)N[C@@H](Cc1ccccc1)C(N)=O [PN19Q→A901] | > 100 µM | 
5 | CSCC[C@H](NC(=O)[C@H](C)NC(=O)[C@H](Cc1ccccc1)NC(C)=O)C(=O)N[C@@H](CCC(N)=O)C(=O)N[C@@H](CCSC)C(=O)N[C@@H](C)C(=O)N[C@@H](Cc1ccc(O)cc1)C(=O)N[C@@H](CCCNC(=N)N)C(=O)N[C@@H](Cc1ccccc1)C(N)=O [PN9] | > 100 µM | 
6 | CC[C@H](C)[C@H](NC(=O)[C@H](CCC(N)=O)NC(=O)[C@H](CC(C)C)NC(=O)[C@H](C)NC(=O)[C@H](C)NC(=O)CNC(=O)[C@H](C)NC(=O)CNC(=O)[C@H](Cc1ccccc1)NC(=O)[C@@H](NC(=O)[C@H](Cc1c[nH]c2ccccc12)NC(C)=O)[C@@H](C)O)C(=O)N1CCC[C@H]1C(=O)N[C@@H](Cc1ccccc1)C(=O)N[C@@H](C)C(=O)N[C@@H](CCSC)C(=O)N[C@@H](CCC(N)=O)C(=O)N[C@@H](CCSC)C(=O)N[C@@H](C)C(=O)N[C@@H](Cc1ccc(O)cc1)C(N)=O [PNC19] | > 100 µM | 
7 | CC[C@H](C)[C@H](NC(=O)[C@H](CCC(N)=O)NC(=O)[C@H](C)NC(=O)[C@H](C)NC(=O)[C@H](C)NC(=O)CNC(=O)[C@H](C)NC(=O)CNC(=O)[C@H](Cc1ccccc1)NC(C)=O)C(=O)N1CCC[C@H]1C(=O)N[C@@H](Cc1ccccc1)C(=O)N[C@@H](C)C(=O)N[C@@H](CCSC)C(=O)N[C@@H](CCC(N)=O)C(=O)N[C@@H](CCSC)C(=O)N[C@@H](C)C(=O)N[C@@H](Cc1ccc(O)cc1)C(=O)N[C@@H](CCCNC(=N)N)C(=O)N[C@@H](Cc1ccccc1)C(N)=O [PN19L→A894] | > 100 µM | 
8 | CC[C@H](C)[C@H](NC(=O)[C@H](CCC(N)=O)NC(=O)[C@H](CC(C)C)NC(=O)[C@H](C)NC(=O)[C@H](C)NC(=O)CNC(=O)[C@H](C)NC(=O)CNC(=O)[C@H](Cc1ccccc1)NC(C)=O)C(=O)N1CCC[C@H]1C(=O)N[C@@H](Cc1ccccc1)C(=O)N[C@@H](C)C(=O)N[C@@H](C)C(=O)N[C@@H](CCC(N)=O)C(=O)N[C@@H](CCSC)C(=O)N[C@@H](C)C(=O)N[C@@H](Cc1ccc(O)cc1)C(=O)N[C@@H](CCCNC(=N)N)C(=O)N[C@@H](Cc1ccccc1)C(N)=O [PN19M→A900] | > 100 µM | 
9 | CSCC[C@H](NC(=O)[C@H](C)NC(=O)[C@H](Cc1ccccc1)NC(=O)[C@@H]1CCCN1C(=O)[C@H](C)NC(=O)[C@H](CCC(N)=O)NC(=O)[C@H](CC(C)C)NC(=O)[C@H](C)NC(=O)[C@H](C)NC(=O)CNC(=O)[C@H](C)NC(=O)CNC(=O)[C@H](Cc1ccccc1)NC(C)=O)C(=O)N[C@@H](CCC(N)=O)C(=O)N[C@@H](CCSC)C(=O)N[C@@H](C)C(=O)N[C@@H](Cc1ccc(O)cc1)C(=O)N[C@@H](CCCNC(=N)N)C(=O)N[C@@H](Cc1ccccc1)C(N)=O [PN19I→A896] | > 100 µM | 
10 | CC[C@H](C)[C@H](NC(=O)[C@H](CCC(N)=O)NC(=O)[C@H](CC(C)C)NC(=O)[C@H](C)NC(=O)[C@H](C)NC(=O)CNC(=O)[C@H](C)NC(=O)CNC(=O)[C@H](Cc1ccccc1)NC(C)=O)C(=O)N1CCC[C@H]1C(=O)N[C@@H](Cc1ccccc1)C(=O)N[C@@H](C)C(=O)N[C@@H](CCSC)C(=O)N[C@@H](CCC(N)=O)C(=O)N[C@@H](C)C(=O)N[C@@H](C)C(=O)N[C@@H](Cc1ccc(O)cc1)C(=O)N[C@@H](CCCNC(=N)N)C(=O)N[C@@H](Cc1ccccc1)C(N)=O [PN19M→A902] | > 100 µM | 
11 | CC[C@H](C)[C@H](NC(=O)[C@H](CCC(N)=O)NC(=O)[C@H](CC(C)C)NC(C)=O)C(=O)N1CCC[C@H]1C(=O)N[C@@H](Cc1ccccc1)C(=O)N[C@@H](C)C(=O)N[C@@H](CCSC)C(=O)N[C@@H](CCC(N)=O)C(=O)N[C@@H](CCSC)C(=O)N[C@@H](C)C(=O)N[C@@H](Cc1ccc(O)cc1)C(=O)N[C@@H](CCCNC(=N)N)C(=O)N[C@@H](Cc1ccccc1)C(N)=O [PN13] | > 100 µM | 
12 | CC[C@H](C)[C@H](NC(=O)[C@H](CCC(N)=O)NC(=O)[C@H](CC(C)C)NC(=O)[C@H](C)NC(=O)[C@H](C)NC(=O)CNC(=O)[C@H](C)NC(=O)CNC(=O)[C@H](Cc1ccccc1)NC(C)=O)C(=O)N1CCC[C@H]1C(=O)N[C@@H](C)C(=O)N[C@@H](C)C(=O)N[C@@H](CCSC)C(=O)N[C@@H](CCC(N)=O)C(=O)N[C@@H](CCSC)C(=O)N[C@@H](C)C(=O)N[C@@H](Cc1ccc(O)cc1)C(=O)N[C@@H](CCCNC(=N)N)C(=O)N[C@@H](Cc1ccccc1)C(N)=O [PN19F→A898] | > 100 µM | 2-3 fold
13 | CC[C@H](C)[C@H](NC(=O)[C@H](CCC(N)=O)NC(=O)[C@H](CC(C)C)NC(=O)[C@H](C)NC(=O)[C@H](C)NC(=O)CNC(=O)[C@H](C)NC(C)=O)C(=O)N1CCC[C@H]1C(=O)N[C@@H](Cc1ccccc1)C(=O)N[C@@H](C)C(=O)N[C@@H](CCSC)C(=O)N[C@@H](CCC(N)=O)C(=O)N[C@@H](CCSC)C(=O)N[C@@H](C)C(=O)N[C@@H](Cc1ccc(O)cc1)C(=O)N[C@@H](CCCNC(=N)N)C(=O)N[C@@H](Cc1ccccc1)C(N)=O [PN17] | > 100 µM | 
14 | CC[C@H](C)[C@H](NC(=O)[C@H](CCC(N)=O)NC(=O)[C@H](CC(C)C)NC(=O)[C@H](C)NC(=O)[C@H](C)NC(=O)CNC(=O)[C@H](C)NC(=O)CNC(=O)[C@H](Cc1ccccc1)NC(C)=O)C(=O)N1CCC[C@H]1C(=O)N[C@@H](Cc1ccccc1)C(=O)N[C@@H](C)C(=O)N[C@@H](CCSC)C(=O)N[C@@H](CCC(N)=O)C(=O)N[C@@H](CCSC)C(=O)N[C@@H](C)C(=O)N[C@@H](C)C(=O)N[C@@H](CCCNC(=N)N)C(=O)N[C@@H](Cc1ccccc1)C(N)=O [PN19Y→A904] | > 100 µM | 2-3 fold
15 | CC[C@H](C)[C@H](NC(=O)[C@H](CCC(N)=O)NC(=O)[C@H](CC(C)C)NC(=O)[C@H](C)NC(=O)[C@H](C)NC(=O)CNC(=O)[C@H](C)NC(=O)CNC(=O)[C@H](Cc1ccccc1)NC(C)=O)C(=O)N1CCC[C@H]1C(=O)N[C@@H](Cc1ccccc1)C(=O)N[C@@H](C)C(=O)N[C@@H](CCSC)C(=O)N[C@@H](CCC(N)=O)C(=O)N[C@@H](CCSC)C(N)=O [PNC15] | > 100 µM | 
16 | CC[C@H](C)[C@H](NC(=O)[C@H](CCC(N)=O)NC(=O)[C@H](CC(C)C)NC(=O)[C@H](C)NC(=O)[C@H](C)NC(=O)CNC(=O)[C@H](C)NC(=O)CNC(=O)[C@H](C)NC(C)=O)C(=O)N1CCC[C@H]1C(=O)N[C@@H](Cc1ccccc1)C(=O)N[C@@H](C)C(=O)N[C@@H](CCSC)C(=O)N[C@@H](CCC(N)=O)C(=O)N[C@@H](CCSC)C(=O)N[C@@H](C)C(=O)N[C@@H](Cc1ccc(O)cc1)C(=O)N[C@@H](CCCNC(=N)N)C(=O)N[C@@H](Cc1ccccc1)C(N)=O [PN19F→A888] | > 100 µM | 
17 | CC[C@H](C)[C@H](NC(=O)[C@H](CCC(N)=O)NC(=O)[C@H](CC(C)C)NC(=O)[C@H](C)NC(=O)[C@H](C)NC(=O)CNC(=O)[C@H](C)NC(=O)CNC(=O)[C@H](Cc1ccccc1)NC(C)=O)C(=O)N1CCC[C@H]1C(=O)N[C@@H](Cc1ccccc1)C(=O)N[C@@H](C)C(=O)N[C@@H](CCSC)C(=O)N[C@@H](CCC(N)=O)C(=O)N[C@@H](CCSC)C(=O)N[C@@H](C)C(=O)N[C@@H](Cc1ccc(O)cc1)C(=O)N[C@@H](C)C(=O)N[C@@H](Cc1ccccc1)C(N)=O [PN19R→A905] | > 100 µM | 
18 | CC[C@H](C)[C@H](NC(=O)[C@H](CCC(N)=O)NC(=O)[C@H](CC(C)C)NC(=O)[C@H](C)NC(=O)[C@H](C)NC(=O)CNC(=O)[C@H](C)NC(=O)CNC(=O)[C@H](Cc1ccccc1)NC(C)=O)C(=O)N[C@@H](C)C(=O)N[C@@H](Cc1ccccc1)C(=O)N[C@@H](C)C(=O)N[C@@H](CCSC)C(=O)N[C@@H](CCC(N)=O)C(=O)N[C@@H](CCSC)C(=O)N[C@@H](C)C(=O)N[C@@H](Cc1ccc(O)cc1)C(=O)N[C@@H](CCCNC(=N)N)C(=O)N[C@@H](Cc1ccccc1)C(N)=O [PN19P→A897] | > 100 µM | 
